Structures are written as SMILES.

Series [1] concerns Sprague Dawley rats. The series is classed as in vivo. Conditions: for Mortality in males: single oral dose (metformin salts 1500 mg/kg, Glycine 871.6 mg/kg), male Sprague Dawley rats; for Glucose reducing effect: single oral dose, Glycine 871.6 mg/Kg, metformin glycinate 1500 mg/kg; for Time of lowest level of glucose in blood after administration: both sexes; for Time of lowest level of glucose in blood after administration / Blood glucose level compared to females from the control group: single oral administration; for Mortality in females: single oral dose 1500 mg/kg, female Sprague Dawley rats. The protocol:
. The following 14 days to administration, toxic effects were evaluated. […]; The cause to deaths was to a pronounced and fast drop in glycemia levels.

For series [2], the system named is Wistar rats. The following applies: both, rat, in vivo, 28 days.
Source text: (§1) Number of animals: 50 Wistar rats, young adults 3 months of age, of both sexes, were used. Five batches with ten animals each. Four experimental groups (10 animals in each group) and a control group.
(§2) After fasting, different doses (low, medium, high, and satellite and control groups) of the product were orally administered using an orogastric tube.
(§3) • Low: 0.1 g/kg • Medium: 0.5 g/kg • High: 1.0 g/kg • Satellite 1.0 g/kg • Control: Only the carrier (Bidistilled water)
Series [3] concerns Wistar rats. Briefly: Subacute toxicity study at 28 days (OECD Guideline 407). The following applies: 0.1, 0.5, 1.0 g/kg oral.
Source text: as §1, §2, §3
In series [4] the test system is Kidney origin cells: CRL 1633. Conditions: 250 mg/ml to 0.12 mg/ml, 24 and 72 hours exposure.
Series [5] concerns Hepatic origin cells: CCL13. The following applies: 250 mg/ml to 0.12 mg/ml, 24 and 72 hours exposure.
The subject of series [6] is Primary cultures: hepatocytes. The following applies: 250 mg/ml to 0.12 mg/ml, 24 and 72 hours exposure.

Turning to `NCC(=O)O` [Glycine, reference compound], in series [1], the Mortality in males result is listed as “did not show mortality” and the Glucose reducing effect result was “did not show a marked glucose reducing affect”.
Turning to `CN(C)C(=N)NC(=N)N` [Metformin glycinate, N,N-dimethylimidodicarbonimidic diamide glycinate], in series [1], the “Time of lowest level of glucose in blood after administration” value is reported as “three”; the “Blood glucose level compared to females from the control group” value is “statistically significant lower blood glucose level 15 min, 30 min and also 3 and 6 hours after”; the Mortality in females is recorded as 30%; the Mortality in males result was “did not show mortality”. In series [1], the Glucose reducing effect entry was “more pronounced reduction of glucose levels”. For the same compound, the “Lactate level in plasma” value in series [1] (day of oral administration, 1500 mg/kg) is given as “increase of lactate level in plasma”. Besides, the “Reversal of semi-pasty faeces during the course of the study” value in series [2] stood at 9th-11th. The “Probable dose for the non-observable adverse effect (extrapolation)” value in series [2] (po) was 500 to 1000 mg/kg. For the same compound, the “Mortality during the 28-day study” value in series [3] is listed as “No mortality”. Besides, the Cytotoxicity entry in series [4] is reported as “not cytotoxic”. In addition, the Cytotoxicity result in series [5] was “not cytotoxic”. In series [6], the Cytotoxicity entry was “not cytotoxic”.
With `CN(C)C(=N)NC(=N)N.Cl` [Metformin hydrochloride, reference compound], in series [1], the “Time of lowest level of glucose in blood after administration” value is “three”; the “Blood glucose level compared to females from the control group” value is “statistically lower blood glucose level 3 and 6 hours after”; the Mortality in females is on record as 10%; the Mortality in males result is reported as “did not show mortality”.

Source of the values: patent US8703183B2 (priority 2008, dated 2014).
